ChEMBL document CHEMBL6182926, “Design, Synthesis, and Biological Activity Evaluation of Deuterated Diphenyl Azole Alcohol-Based CYP51 Inhibitors” (J Med Chem, 2025)
Values after ≈ are worked out from the molar mass of the structure shown.

Tests used:
[1] = MRT (0 to infinity) in Sprague-Dawley rat at 3 mg/kg, iv by LC-MS/MS analysis; assay type: ADME, organism-based; settings: in vivo
Candida albicans [2] = test: Antifungal activity against Candida albicans SC5314 assessed as reduction in other sterol at 0.05 ug/ml measured after 18 hrs incubation by gas chromatography-mass spectrometry (GCMS) analysis (reference value: 2.59%); assay type: functional; design: scale not given: the % may be the effect or the level left; settings: dose 0.05 µg/ml
[3] = Cmax in Sprague-Dawley rat at 3 mg/kg, iv by LC-MS/MS analysis; assay type: ADME, organism-based; settings: in vivo
Cytochrome P450 1A2 = target: T1, Cytochrome P450 1A2 (Homo sapiens, UniProt P05177); test: Inhibition of CYP1A2 in human liver microsomes using phenacetin as substrate measured after 10 mins by LC/MS/MS analysis; assay type: ADME, Microsome
T1 sequence (P05177 whole entry): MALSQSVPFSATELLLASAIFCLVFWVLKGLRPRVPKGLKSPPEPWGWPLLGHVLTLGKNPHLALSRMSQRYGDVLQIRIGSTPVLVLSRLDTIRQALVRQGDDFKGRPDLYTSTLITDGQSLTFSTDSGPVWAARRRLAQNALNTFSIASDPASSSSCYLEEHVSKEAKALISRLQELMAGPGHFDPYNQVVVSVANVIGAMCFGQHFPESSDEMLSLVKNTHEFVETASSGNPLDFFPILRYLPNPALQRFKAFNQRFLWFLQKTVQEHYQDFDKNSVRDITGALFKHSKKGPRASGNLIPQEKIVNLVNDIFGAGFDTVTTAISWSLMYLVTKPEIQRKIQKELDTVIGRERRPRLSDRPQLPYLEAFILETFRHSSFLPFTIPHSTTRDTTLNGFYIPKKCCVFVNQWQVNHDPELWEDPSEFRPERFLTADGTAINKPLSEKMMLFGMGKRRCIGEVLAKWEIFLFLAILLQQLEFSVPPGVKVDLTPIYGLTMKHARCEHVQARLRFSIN

[4] = (§1) Selectivity ratio, ratio of IC50 for cytotoxicity against human SH-SY5Y cells to MIC80 for antifungal activity against Clinical isolate Candida glabrata; assay type: toxicity, cell-based
[5] = Toxicity in ICR mouse assessed as change in body weight at 500 mg/kg, po single dose measured for 7 days; assay type: organism-based; settings: in vivo, 168 h, time 7 day
[6] = Subacute toxicity in ICR mouse assessed as change in body weight at 100 mg/kg, oral gavage for 14 consecutive days; assay type: organism-based; settings: in vivo, 336 h, time 14 day
Cryptococcus neoformans [7] = test: Inhibition of biofilm formation in Cryptococcus neoformans CGMCC 2.3161 assessed as inhibition of metabolic activity of biofilm measured after 24 hrs by XTT assay; assay type: functional
Cytochrome P450 2D6 = Cytochrome P450 2D6 (Homo sapiens, UniProt P10635); test: Inhibition of CYP2D6 in human liver microsomes using dextromethorphan as substrate measured after 10 mins by LC/MS/MS analysis; assay type: ADME, Microsome
Nakaseomyces glabratus [8] = test: Fungicidal index, ratio of MFC for fungicidal activity against Clinical isolate Candida glabrata to MIC80 for antifungal activity against Clinical isolate Candida glabrata; assay type: functional
Pichia kudriavzevii = test: Fungicidal activity against Candida krusei AS 2.1045 assessed as concentration of colonies (< 5) measured after 48 hrs incubation; assay type: functional
Cytochrome P450 2C19 = Cytochrome P450 2C19 (Homo sapiens, UniProt P33261); test: Inhibition of CYP2C19 in human liver microsomes using S-mephenytoin as substrate measured after 10 mins by LC/MS/MS analysis; assay type: ADME, Microsome
[9] = AUC (0 to infinity) in Sprague-Dawley rat at 3 mg/kg, iv by LC-MS/MS analysis; assay type: ADME, organism-based; settings: in vivo
[10] = Selectivity ratio, ratio of IC50 for cytotoxicity against human SH-SY5Y cells to MIC80 for antifungal activity against Candida albicans SC 5314; assay type: toxicity, cell-based
Cryptococcus neoformans [11] = test: Antifungal activity against Cryptococcus neoformans CGMCC 2.3161 assessed as reduction in other sterol at 0.125 ug/ml measured after 18 hrs incubation by gas chromatography-mass spectrometry (GCMS) analysis (reference value: 2.20%); assay type: functional; design: scale not given: the % may be the effect or the level left; settings: dose 0.125 µg/ml
Candida albicans [12] = test: Antifungal activity against Candida albicans SC5314 assessed as reduction in Eburicol at 0.05 ug/ml measured after 18 hrs incubation by gas chromatography-mass spectrometry (GCMS) analysis; assay type: functional; design: scale not given: the % may be the effect or the level left; settings: dose 0.05 µg/ml
[13] = Selectivity ratio, ratio of IC50 for cytotoxicity against human SH-SY5Y cells to MIC80 for antifungal activity against Candida parapsilosis GIM 2.190; assay type: toxicity, cell-based
Nakaseomyces glabratus [14] = test: Fungicidal activity against Clinical isolate Candida glabrata assessed as concentration of colonies (< 5) measured after 48 hrs incubation; assay type: functional
[15] = Subacute toxicity in ICR mouse assessed as structural alteration in kidney at 100 mg/kg, oral gavage for 14 consecutive days by hematoxylin-eosin (H/E) staining analysis; assay type: organism-based; settings: in vivo, 336 h, time 14 day
Cryptococcus neoformans [16] = test: Antifungal activity against Cryptococcus neoformans CGMCC 2.3161 assessed as reduction in Obtusifoliol at 0.0125 ug/ml measured after 18 hrs incubation by gas chromatography-mass spectrometry (GCMS) analysis; assay type: functional; design: scale not given: the % may be the effect or the level left; settings: dose 0.0125 µg/ml
Cryptococcus neoformans [17] = test: Fungicidal activity against Cryptococcus neoformans CGMCC 2.3161 assessed as concentration of colonies (< 5) measured after 48 hrs incubation; assay type: functional
Cryptococcus neoformans [18] = test: Antifungal activity against Cryptococcus neoformans CGMCC 2.3161 assessed as reduction in 14alpha-methylsterols at 0.125 ug/ml measured after 18 hrs incubation by gas chromatography-mass spectrometry (GCMS) analysis (reference value: 2.32%); assay type: functional; design: scale not given: the % may be the effect or the level left; settings: dose 0.125 µg/ml
[19] = as §1; assay type: toxicity, cell-based; remark: listed apart in the source
[20] = Toxicity in ICR mouse assessed as structural alteration in liver at 500 mg/kg, po single dose measured for 7 days by hematoxylin-eosin (H/E) staining analysis; assay type: organism-based; settings: in vivo, 168 h, time 7 day
Cryptococcus neoformans [21] = test: Antifungal activity against Cryptococcus neoformans CGMCC 2.3161 assessed as reduction in other sterol at 0.0125 ug/ml measured after 18 hrs incubation by gas chromatography-mass spectrometry (GCMS) analysis (reference value: 2.20%); assay type: functional; design: scale not given: the % may be the effect or the level left; settings: dose 0.0125 µg/ml
Cytochrome P450 3A4 = Cytochrome P450 3A4 (Homo sapiens, UniProt P08684); test: Inhibition of CYP3A4 in human liver microsomes using testosterone as substrate measured after 10 mins by LC/MS/MS analysis; assay type: ADME, Microsome
[22] = Toxicity in ICR mouse assessed as structural alteration in kidney at 500 mg/kg, po single dose measured for 7 days by hematoxylin-eosin (H/E) staining analysis; assay type: organism-based; settings: in vivo, 168 h, time 7 day
[23] = Subacute toxicity in ICR mouse assessed as mortality at 100 mg/kg, oral gavage for 14 consecutive days; assay type: organism-based; settings: in vivo, 336 h, time 14 day
Aspergillus fumigatus = test: Antifungal activity against Aspergillus fumigatus CGMCC 3.7795 assessed as inhibition of visible growth; assay type: functional
Cryptococcus neoformans [24] = test: Antifungal activity against Cryptococcus neoformans CGMCC 2.3161 assessed as reduction in Obtusifoliol at 0.125 ug/ml measured after 18 hrs incubation by gas chromatography-mass spectrometry (GCMS) analysis; assay type: functional; design: scale not given: the % may be the effect or the level left; settings: dose 0.125 µg/ml
Cryptococcus neoformans [25] = test: Antifungal activity against Cryptococcus neoformans CGMCC 2.3161 assessed as reduction in Eburicol at 0.125 ug/ml measured after 18 hrs incubation by gas chromatography-mass spectrometry (GCMS) analysis; assay type: functional; design: scale not given: the % may be the effect or the level left; settings: dose 0.125 µg/ml
Cryptococcus neoformans [26] = test: Antifungal activity against Cryptococcus neoformans CGMCC 2.3161 assessed as reduction in Lanosterol at 0.125 ug/ml measured after 18 hrs incubation by gas chromatography-mass spectrometry (GCMS) analysis; assay type: functional; design: scale not given: the % may be the effect or the level left; settings: dose 0.125 µg/ml

Sequence of Cytochrome P450 2C19 (P33261 whole entry): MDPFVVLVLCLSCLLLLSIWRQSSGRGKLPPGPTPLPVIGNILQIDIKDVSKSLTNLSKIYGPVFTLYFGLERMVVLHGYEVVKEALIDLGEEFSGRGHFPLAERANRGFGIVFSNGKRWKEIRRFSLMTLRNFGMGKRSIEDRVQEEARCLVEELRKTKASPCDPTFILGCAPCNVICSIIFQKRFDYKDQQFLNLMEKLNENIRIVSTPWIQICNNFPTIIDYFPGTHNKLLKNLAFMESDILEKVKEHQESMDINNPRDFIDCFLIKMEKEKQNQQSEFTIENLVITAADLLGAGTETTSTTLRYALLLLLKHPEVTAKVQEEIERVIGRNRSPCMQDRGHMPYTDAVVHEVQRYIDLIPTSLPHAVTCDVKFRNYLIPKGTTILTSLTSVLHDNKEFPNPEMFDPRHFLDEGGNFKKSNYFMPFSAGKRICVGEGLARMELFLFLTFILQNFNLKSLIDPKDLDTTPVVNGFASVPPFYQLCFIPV
Sequence of Cytochrome P450 2D6 (P10635 whole entry): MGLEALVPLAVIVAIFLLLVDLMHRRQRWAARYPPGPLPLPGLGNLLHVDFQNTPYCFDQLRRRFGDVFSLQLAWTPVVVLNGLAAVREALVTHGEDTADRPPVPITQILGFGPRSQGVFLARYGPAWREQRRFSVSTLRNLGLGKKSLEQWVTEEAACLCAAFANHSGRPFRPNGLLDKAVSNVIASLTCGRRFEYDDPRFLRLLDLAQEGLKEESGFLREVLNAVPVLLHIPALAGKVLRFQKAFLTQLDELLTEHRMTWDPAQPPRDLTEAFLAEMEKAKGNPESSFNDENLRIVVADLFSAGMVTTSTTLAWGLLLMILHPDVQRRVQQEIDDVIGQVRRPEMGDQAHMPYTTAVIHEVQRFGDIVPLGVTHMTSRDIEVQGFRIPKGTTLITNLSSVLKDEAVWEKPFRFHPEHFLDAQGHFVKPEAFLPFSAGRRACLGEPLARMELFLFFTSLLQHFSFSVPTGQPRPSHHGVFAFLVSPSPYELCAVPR
Sequence of Cytochrome P450 3A4 (P08684 whole entry): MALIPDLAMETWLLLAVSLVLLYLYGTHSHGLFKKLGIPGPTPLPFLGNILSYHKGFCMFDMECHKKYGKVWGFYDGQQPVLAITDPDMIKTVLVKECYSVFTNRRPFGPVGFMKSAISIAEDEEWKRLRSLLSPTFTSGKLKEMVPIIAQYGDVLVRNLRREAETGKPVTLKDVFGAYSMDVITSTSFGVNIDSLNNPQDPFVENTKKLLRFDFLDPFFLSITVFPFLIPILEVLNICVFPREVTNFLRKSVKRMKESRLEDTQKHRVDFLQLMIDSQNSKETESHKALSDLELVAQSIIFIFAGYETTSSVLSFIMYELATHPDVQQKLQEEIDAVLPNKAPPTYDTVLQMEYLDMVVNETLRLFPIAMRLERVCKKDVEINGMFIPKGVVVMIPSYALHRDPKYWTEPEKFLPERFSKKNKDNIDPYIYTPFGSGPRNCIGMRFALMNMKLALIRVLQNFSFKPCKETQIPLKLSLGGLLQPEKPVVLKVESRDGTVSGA

Work on `[2H]C([2H])([2H])N(Cc1ccc(-c2ccc(OC(F)(F)F)cc2)cc1)[C@H](C)[C@](O)(Cn1cncn1)c1ccc(F)cc1F` yielded an MRT inf [1] of 2.32 h, an Activity (Candida albicans [2]) of 3.13% and a Cmax [3] of 2290 ng/mL. The IC50 (Cytochrome P450 1A2) was > 10 µM, the selectivity ratio [4] was > 100 and the Activity [5] was “Non-toxic”. The Activity [6] was “Non-toxic”, the MIC50 (Cryptococcus neoformans [7]) was 16 µg/mL (≈ 29.9 µM) and the IC50 (Cytochrome P450 2D6) was > 10 µM. It also gave an Activity_index (Nakaseomyces glabratus [8]) of 40, an MFC (Pichia kudriavzevii) of 0.125 µg/mL (≈ 0.233 µM) and an IC50 (Cytochrome P450 2C19) of 1.71 µM. For the same compound, the AUC [9] was 2286 ng·h/mL, the selectivity ratio [10] was > 100 and the Activity (Cryptococcus neoformans [11]) was 11.5%. The Activity (Candida albicans [12]) was 46.42%, the selectivity ratio [13] was > 100 and the MFC (Nakaseomyces glabratus [14]) was 0.5 µg/mL (≈ 0.934 µM). The Activity [15] was “Non-toxic”, the Activity (Cryptococcus neoformans [16]) was 5.76% and the MFC (Cryptococcus neoformans [17]) was 0.062 µg/mL (≈ 0.116 µM). For the same compound, the Activity (Cryptococcus neoformans [18]) was 3.21%, the selectivity ratio [19] was > 100 and the Activity [20] was “Non-toxic”. The Activity (Cryptococcus neoformans [21]) was 8.38%, the IC50 (Cytochrome P450 3A4) was 5.11 µM and the Activity [22] was “Non-toxic”. For the same compound, the Activity [23] was “Non-toxic”, the MIC80 (Aspergillus fumigatus) was 0.025 µg/mL (≈ 0.0467 µM) and the Activity (Cryptococcus neoformans [24]) was 26.05%. It also gave an Activity (Cryptococcus neoformans [25]) of 47.42% and an Activity (Cryptococcus neoformans [26]) of 6.14%.
